Data reported in patent US5891917A, “Certain acrylonitrile-sulfonamide derivatives” (Sugen, Inc., priority 1997, dated 1999).
pIC50: −log10 of the molar value.

Target: T1, FLK-1 receptor (Mus musculus, UniProt P35918)
T1 construct: expressed in transfected cells; host or cells: NIH3T3C7#3 cells (FLK-1 infected)
Assay: ELISA assay to measure kinase activity of FLK-1 receptor in FLK-1/NIH cells
Format: cell-based, murine
Conditions: 50 ng/ml VEGF, read-out: ELISA DATA: FLK-1-(Cell.)
Excerpt: For purposes of this application, although the nomenclature of the human and murine counterparts of the generic "flk-I" receptor differ, they are, in many respects, interchangeable. The murine receptor, FLK1, and its human counterpart, KDR, share a sequence homology of 93.4% within the intracellular domain. Likewise, murine FLK-I binds human VEGF with the same affinity as mouse VEGF, and accordingly, is activated by the ligand derived from either species. Millauer et al., 1993, Cell 72:835-846; Quinn et al., 1993, Proc. Natl. Acad. Sci. USA 90:7533-7537. FLK-1 also associates with and subsequently tyrosine phosphorylates human RTK substrates (e.g., PLC-γ or p85) when coexpressed in 293 cells (human embryonal kidney fibroblasts).
ELISA Assay To Measure Kinase Activity Of FLK-I Receptor In FLK-I/NIH Cells
An ELISA assay was conducted to measure the kinase activity of the FLK-I receptor and more specifically, the inhibition or activiation of protein tyrosine kinase activity on the FLK-I receptor.
k. N1H3T3C7#3 Cells (FLK-I infected cells);
1. Coat Corning 96-well elisa plates with 1.0 ug per well Cappel Anti-rabbit IgG antibody in 0.1M Na2CO3 pH 9.6. Bring final volume to 150 ul per well. Coat plates overnight at 4° C. Plates can be kept up to two weeks when stored at 4° C.
2. […]

T1 sequence (P35918 20-1345): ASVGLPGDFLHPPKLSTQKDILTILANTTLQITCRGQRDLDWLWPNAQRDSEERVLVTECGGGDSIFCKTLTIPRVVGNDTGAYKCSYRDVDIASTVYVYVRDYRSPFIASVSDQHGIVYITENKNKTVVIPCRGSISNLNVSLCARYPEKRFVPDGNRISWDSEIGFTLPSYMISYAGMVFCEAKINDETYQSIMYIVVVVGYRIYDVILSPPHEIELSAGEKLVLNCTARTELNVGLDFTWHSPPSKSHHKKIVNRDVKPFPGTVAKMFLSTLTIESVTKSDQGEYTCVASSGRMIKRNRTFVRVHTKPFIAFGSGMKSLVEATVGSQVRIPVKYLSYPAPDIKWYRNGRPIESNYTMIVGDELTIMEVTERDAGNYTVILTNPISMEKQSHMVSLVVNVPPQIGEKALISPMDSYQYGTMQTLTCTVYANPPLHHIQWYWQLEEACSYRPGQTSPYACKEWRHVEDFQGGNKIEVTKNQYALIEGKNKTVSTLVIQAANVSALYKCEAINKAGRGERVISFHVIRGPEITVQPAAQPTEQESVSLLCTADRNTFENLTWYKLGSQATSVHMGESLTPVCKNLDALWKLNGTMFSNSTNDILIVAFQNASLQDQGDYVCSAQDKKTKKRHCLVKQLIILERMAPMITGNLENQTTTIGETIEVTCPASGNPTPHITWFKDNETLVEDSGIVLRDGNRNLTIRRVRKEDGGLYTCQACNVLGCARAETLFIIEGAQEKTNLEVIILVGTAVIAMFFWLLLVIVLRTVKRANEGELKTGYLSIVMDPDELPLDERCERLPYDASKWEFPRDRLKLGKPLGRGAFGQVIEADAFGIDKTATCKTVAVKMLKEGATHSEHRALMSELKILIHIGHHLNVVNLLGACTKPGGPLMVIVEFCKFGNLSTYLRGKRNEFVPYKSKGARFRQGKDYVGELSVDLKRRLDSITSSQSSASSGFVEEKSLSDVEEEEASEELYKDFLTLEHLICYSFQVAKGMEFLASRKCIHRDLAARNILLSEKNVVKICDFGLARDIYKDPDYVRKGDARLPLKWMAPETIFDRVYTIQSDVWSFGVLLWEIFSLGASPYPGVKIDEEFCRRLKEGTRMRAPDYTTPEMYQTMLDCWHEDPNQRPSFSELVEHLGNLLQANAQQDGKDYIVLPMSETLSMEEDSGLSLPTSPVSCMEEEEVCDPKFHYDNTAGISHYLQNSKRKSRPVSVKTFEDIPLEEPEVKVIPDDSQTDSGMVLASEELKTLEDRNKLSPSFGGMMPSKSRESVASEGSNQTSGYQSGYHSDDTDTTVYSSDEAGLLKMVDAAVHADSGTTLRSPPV

Row | Compound | pIC50
1 | CC(C)c1cc(/C=C(\C#N)S(=O)(=O)c2ccccn2)cc(C(C)C)c1O [Compound 747] | < 4.30
2 | Cc1cc(/C=C(\C#N)S(=O)(=O)c2ccccc2)cc(C)c1O [Compound 748] | > 4.30
